Numbers after ± are expanded uncertainties. Blank lines part the entries; values can stand above or below the compound they belong to.
How the values were obtained:
[1] = 298.15 K, 101 kPa, Liquid; for electrical conductivity: Alternating current cell with electrodes; for viscosity: Falling or rolling sphere viscometry; for self diffusion coefficient: PFG NMR Spectroscopy
[2] = xn = mol fraction of the nth substance listed; details: 298.15 K, 101 kPa, Liquid; for electrical conductivity: Alternating current cell with electrodes; for viscosity: Falling or rolling sphere viscometry

Structure (SMILES): CCn1cc[n+](C)c1.COS(=O)(=O)[O-] [1-ethyl-3-methylimidazolium methylsulfate]
electrical conductivity [1]: 0.547 ± 0.007 S/m | viscosity [1]: 81.4 ± 2.7 mPa·s | self diffusion coefficient [1]: 4.6e-11 m2/s

Structure (SMILES): O [water]
viscosity [1]: 0.89 ± 0.04 mPa·s | self diffusion coefficient [1]: 2.3e-09 m2/s

Structure (SMILES): O [water] + CCCCn1cc[n+](C)c1.COS(=O)(=O)[O-]
viscosity ([2]; x1 = 1): 0.89 ± 0.04 mPa·s

Structure (SMILES): O [water] + CCn1cc[n+](C)c1.COS(=O)(=O)[O-]
viscosity ([2]; x1 = 1): 0.89 ± 0.04 mPa·s

The remaining lines, values ahead:

electrical conductivity [1]: 0.126 ± 0.002 S/m | viscosity [1]: 223 ± 12 mPa·s | self diffusion coefficient [1]: 1.3e-11 m2/s
Structure (SMILES): CCCCn1cc[n+](C)c1.COS(=O)(=O)[O-] [1-butyl-3-methylimidazolium methyl sulfate]

electrical conductivity ([2]; x2 = 0): 0.126 ± 0.002 S/m | electrical conductivity ([2]; x2 = 0.1999): 0.247 ± 0.003 S/m | electrical conductivity ([2]; x2 = 0.4037): 0.4 ± 0.005 S/m | electrical conductivity ([2]; x2 = 0.617): 0.799 ± 0.01 S/m | electrical conductivity ([2]; x2 = 0.7937): 1.77 ± 0.021 S/m | electrical conductivity ([2]; x2 = 0.9437): 3.42 ± 0.041 S/m | electrical conductivity ([2]; x2 = 0.992): 1.92 ± 0.044 S/m | electrical conductivity ([2]; x2 = 0.9977): 0.849 ± 0.039 S/m | viscosity ([2]; x2 = 0): 223 ± 12 mPa·s | viscosity ([2]; x2 = 0.1999): 112 ± 4 mPa·s | viscosity ([2]; x2 = 0.4037): 63.1 ± 2.1 mPa·s | viscosity ([2]; x2 = 0.617): 27.6 ± 1 mPa·s | viscosity ([2]; x2 = 0.7937): 11.5 ± 0.4 mPa·s
Structure (SMILES): CCCCn1cc[n+](C)c1.COS(=O)(=O)[O-] [1-butyl-3-methylimidazolium methyl sulfate] + O

electrical conductivity ([2]; x2 = 0): 0.547 ± 0.007 S/m | electrical conductivity ([2]; x2 = 0.2542): 0.909 ± 0.011 S/m | electrical conductivity ([2]; x2 = 0.4994): 1.6 ± 0.019 S/m | electrical conductivity ([2]; x2 = 0.7519): 3.16 ± 0.038 S/m | electrical conductivity ([2]; x2 = 0.8053): 3.99 ± 0.048 S/m | electrical conductivity ([2]; x2 = 0.9249): 6.23 ± 0.075 S/m | electrical conductivity ([2]; x2 = 0.9737): 4.58 ± 0.055 S/m | viscosity ([2]; x2 = 0): 81.4 ± 2.7 mPa·s | viscosity ([2]; x2 = 0.2542): 39.7 ± 1.3 mPa·s | viscosity ([2]; x2 = 0.4994): 20.2 ± 0.7 mPa·s | viscosity ([2]; x2 = 0.7519): 8.59 ± 0.31 mPa·s | viscosity ([2]; x2 = 0.8053): 6.62 ± 0.25 mPa·s | viscosity ([2]; x2 = 0.9249): 2.59 ± 0.1 mPa·s | viscosity ([2]; x2 = 0.9737): 1.43 ± 0.06 mPa·s
Structure (SMILES): CCn1cc[n+](C)c1.COS(=O)(=O)[O-] [1-ethyl-3-methylimidazolium methylsulfate] + O
